PubChem BioAssay AID2060603 (Molecular Pharmacology Branch, DTP, NCI, 2025)

Tested on: 422866-222-R5-J1-PDC spheroid viability
Test: Anticancer human tumor 422866-222-R5-J1-PDC patient-derived pancreatic adenocarcinoma cell line growth inhibition [CLK]
Details: spheroids with HUVEC and MSC; for IC50: curve of first compound; for viability, T/C: stronger effect = lower value
How it was run: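 Multi-cell-type spheroids combined patient-derived tumor cells with HUVEC endothelial cells and human mesenchymal stem cells. Paired agents were dosed in half-log steps down from about clinical Cmax, or from 10 microM where Cmax was unknown.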
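Note: spheroids exposed to agents for seven days before readout.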

For `CC1(C)CCC(CN2CCN(c3ccc(C(=O)NS(=O)(=O)c4ccc(NCC5CCOCC5)c([N+](=O)[O-])c4)c(Oc4cnc5[nH]ccc5c4)c3)CC2)=C(c2ccc(Cl)cc2)C1` + CN1CCN(c2cc(C(=O)Nc3cc4cc(-c5cnn(C)c5)ccc4cn3)ccn2)CC1, the IC50 (second compound 0.0316 µM) was > 10000 nM, the IC50 (second compound 0.1 µM) was > 10000 nM and the IC50 (second compound 0.316 µM) was 7960 nM. For the same compound, the IC50 (second compound 1 µM) was < 31.6 nM, the IC50 (second compound 3.16 µM) was < 31.6 nM and the IC50 (second compound 10 µM) was < 31.6 nM. It also gave a viability, T/C (second compound 0.0316 µM, first compound 0.0316 µM) of 105%, a viability, T/C (second compound 0.0316 µM, first compound 0.1 µM) of 104% and a viability, T/C (second compound 0.0316 µM, first compound 0.316 µM) of 101%. The viability, T/C (second compound 0.0316 µM, first compound 1 µM) was 115%, the viability, T/C (second compound 0.0316 µM, first compound 3.16 µM) was 113% and the viability, T/C (second compound 0.0316 µM, first compound 10 µM) was 69.3%. The viability, T/C (second compound 0.1 µM, first compound 0.0316 µM) was 111%, the viability, T/C (second compound 0.1 µM, first compound 0.1 µM) was 117% and the viability, T/C (second compound 0.1 µM, first compound 0.316 µM) was 105%. It also gave a viability, T/C (second compound 0.1 µM, first compound 1 µM) of 109%, a viability, T/C (second compound 0.1 µM, first compound 3.16 µM) of 95.8% and a viability, T/C (second compound 0.1 µM, first compound 10 µM) of 58.3%. The viability, T/C (second compound 0.316 µM, first compound 0.0316 µM) was 89.2%, the viability, T/C (second compound 0.316 µM, first compound 0.1 µM) was 107% and the viability, T/C (second compound 0.316 µM, first compound 0.316 µM) was 96.5%. The viability, T/C (second compound 0.316 µM, first compound 1 µM) was 91.2%, the viability, T/C (second compound 0.316 µM, first compound 3.16 µM) was 91.9% and the viability, T/C (second compound 0.316 µM, first compound 10 µM) was 39.6%. It also gave a viability, T/C (second compound 1 µM, first compound 0.0316 µM) of 26.1%, a viability, T/C (second compound 1 µM, first compound 0.1 µM) of 26.1% and a viability, T/C (second compound 1 µM, first compound 0.316 µM) of 22.1%. It also gave a viability, T/C (second compound 1 µM, first compound 1 µM) of 27.5%, a viability, T/C (second compound 1 µM, first compound 3.16 µM) of 25.1% and a viability, T/C (second compound 1 µM, first compound 10 µM) of 12.1%. The viability, T/C (second compound 3.16 µM, first compound 0.0316 µM) was 11.2%, the viability, T/C (second compound 3.16 µM, first compound 0.1 µM) was 10.1% and the viability, T/C (second compound 3.16 µM, first compound 0.316 µM) was 8.93%. The viability, T/C (second compound 3.16 µM, first compound 1 µM) was 9.29%, the viability, T/C (second compound 3.16 µM, first compound 3.16 µM) was 8.57% and the viability, T/C (second compound 3.16 µM, first compound 10 µM) was 0.67%. It also gave a viability, T/C (second compound 10 µM, first compound 0.0316 µM) of 3.46%, a viability, T/C (second compound 10 µM, first compound 0.1 µM) of 3.09% and a viability, T/C (second compound 10 µM, first compound 0.316 µM) of 2.86%. The viability, T/C (second compound 10 µM, first compound 1 µM) was 1.74%, the viability, T/C (second compound 10 µM, first compound 3.16 µM) was 2.12% and the viability, T/C (second compound 10 µM, first compound 10 µM) was 1.57%.
`NC(=O)C(=Cn1cnc(-c2cc(C(F)(F)F)cc(C(F)(F)F)c2)n1)c1cncnc1` + CN1CCN(c2cc(C(=O)Nc3cc4cc(-c5cnn(C)c5)ccc4cn3)ccn2)CC1 was tested, and the IC50 (second compound 0.0316 µM) was > 3000 nM, the IC50 (second compound 0.1 µM) was > 3000 nM and the IC50 (second compound 0.316 µM) was 55.8 nM. The IC50 (second compound 1 µM) was < 9.49 nM, the IC50 (second compound 3.16 µM) was < 9.49 nM and the IC50 (second compound 10 µM) was < 9.49 nM. For the same compound, the viability, T/C (second compound 0.0316 µM, first compound 0.00949 µM) was 123%, the viability, T/C (second compound 0.0316 µM, first compound 0.03 µM) was 117% and the viability, T/C (second compound 0.0316 µM, first compound 0.0949 µM) was 80%. It also gave a viability, T/C (second compound 0.0316 µM, first compound 0.3 µM) of 48.4%, a viability, T/C (second compound 0.0316 µM, first compound 0.949 µM) of 66.3% and a viability, T/C (second compound 0.0316 µM, first compound 3 µM) of 78.4%. The viability, T/C (second compound 0.1 µM, first compound 0.00949 µM) was 110%, the viability, T/C (second compound 0.1 µM, first compound 0.03 µM) was 94.6% and the viability, T/C (second compound 0.1 µM, first compound 0.0949 µM) was 73.8%. The viability, T/C (second compound 0.1 µM, first compound 0.3 µM) was 32.1%, the viability, T/C (second compound 0.1 µM, first compound 0.949 µM) was 55.6% and the viability, T/C (second compound 0.1 µM, first compound 3 µM) was 67.4%. It also gave a viability, T/C (second compound 0.316 µM, first compound 0.00949 µM) of 66.5%, a viability, T/C (second compound 0.316 µM, first compound 0.03 µM) of 63.8% and a viability, T/C (second compound 0.316 µM, first compound 0.0949 µM) of 38.2%. For the same compound, the viability, T/C (second compound 0.316 µM, first compound 0.3 µM) was 21.9%, the viability, T/C (second compound 0.316 µM, first compound 0.949 µM) was 21% and the viability, T/C (second compound 0.316 µM, first compound 3 µM) was 20.9%. It also gave a viability, T/C (second compound 1 µM, first compound 0.00949 µM) of 15.6%, a viability, T/C (second compound 1 µM, first compound 0.03 µM) of 14.2% and a viability, T/C (second compound 1 µM, first compound 0.0949 µM) of 15.1%. The viability, T/C (second compound 1 µM, first compound 0.3 µM) was 22.4%, the viability, T/C (second compound 1 µM, first compound 0.949 µM) was 22.9% and the viability, T/C (second compound 1 µM, first compound 3 µM) was 14.5%. It also gave a viability, T/C (second compound 3.16 µM, first compound 0.00949 µM) of 12.9%, a viability, T/C (second compound 3.16 µM, first compound 0.03 µM) of 15.1% and a viability, T/C (second compound 3.16 µM, first compound 0.0949 µM) of 18.3%. It also gave a viability, T/C (second compound 3.16 µM, first compound 0.3 µM) of 18.9%, a viability, T/C (second compound 3.16 µM, first compound 0.949 µM) of 19.9% and a viability, T/C (second compound 3.16 µM, first compound 3 µM) of 18.5%. For the same compound, the viability, T/C (second compound 10 µM, first compound 0.00949 µM) was 2.84%, the viability, T/C (second compound 10 µM, first compound 0.03 µM) was 1.47% and the viability, T/C (second compound 10 µM, first compound 0.0949 µM) was 2.11%. For the same compound, the viability, T/C (second compound 10 µM, first compound 0.3 µM) was 1.91%, the viability, T/C (second compound 10 µM, first compound 0.949 µM) was 6.33% and the viability, T/C (second compound 10 µM, first compound 3 µM) was 9.39%.
